# Key:
# [1] = test system: P300/CBP; experiment: P300/CBP cellular protein degradation; type: cell-based
# Procedure: Cultured cells were washed with cold PBS once and lysed in cold RIPA buffer supplemented with protease inhibitors and phosphatase inhibitors (Beyotime Biotechnology). The solutions were then incubated at 4° C. for 30 min with gentle agitation to fully lysed cells. Cell lysates were centrifuged at 13,000 rpm for 10 min at 4° C. and pellets were discarded. Total protein concentrations in the lysates were determined following BCA assays (Beyotime Biotechnology). Cell lysates were mixed with Laemmli loading buffer and heated at 99° C. for 5 min. Proteins were resolved on SDS-PAGE and visualized using Western ECL Substrate kits on a ChemiDoc MP Imaging system (Bio-Rad). Protein bands were quantitated using the Image Lab software provided by Bio-Rad.
# [2] = target: T1, DDB1 (Homo sapiens, UniProt Q16531, D705G/DEL396-460/DEL463-701/I704S/T703N); experiment: SPR binding assay to immobilized DDB1ΔBPB; details: binding affinities to DDB1
# T1 construct: His6 (N, cleaved yes); TEV protease cleavage site (N, cleaved yes); made in house; host or cells: SF9 insect cells, Bac-to-Bac baculovirus, pFastBacHTB vector
# T1 sequence (Q16531 other isoform, or with tags, fused parts or gaps DEL396-460/DEL463-701/T703N/I704S/D705G): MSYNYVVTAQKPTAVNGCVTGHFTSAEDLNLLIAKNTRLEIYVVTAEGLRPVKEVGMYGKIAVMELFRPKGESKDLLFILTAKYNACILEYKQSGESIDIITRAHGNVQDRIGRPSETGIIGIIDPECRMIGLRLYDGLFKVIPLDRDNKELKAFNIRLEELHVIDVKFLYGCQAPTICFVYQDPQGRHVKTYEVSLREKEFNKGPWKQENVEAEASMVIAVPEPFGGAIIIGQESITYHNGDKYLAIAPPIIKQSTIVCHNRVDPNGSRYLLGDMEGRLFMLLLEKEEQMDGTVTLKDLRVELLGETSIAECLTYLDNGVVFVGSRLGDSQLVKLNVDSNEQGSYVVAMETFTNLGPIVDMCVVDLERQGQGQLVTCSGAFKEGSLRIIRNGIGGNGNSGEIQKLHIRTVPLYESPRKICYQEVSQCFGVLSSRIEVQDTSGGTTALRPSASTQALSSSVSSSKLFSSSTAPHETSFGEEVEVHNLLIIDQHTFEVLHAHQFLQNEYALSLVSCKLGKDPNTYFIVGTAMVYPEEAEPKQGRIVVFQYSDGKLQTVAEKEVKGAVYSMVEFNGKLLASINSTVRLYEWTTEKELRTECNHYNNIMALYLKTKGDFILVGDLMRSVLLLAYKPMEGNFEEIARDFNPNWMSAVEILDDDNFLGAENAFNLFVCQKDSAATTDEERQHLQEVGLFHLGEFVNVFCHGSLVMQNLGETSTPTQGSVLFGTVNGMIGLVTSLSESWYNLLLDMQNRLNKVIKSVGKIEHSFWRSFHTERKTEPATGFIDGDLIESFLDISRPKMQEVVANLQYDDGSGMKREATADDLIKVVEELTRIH
# Procedure: The binding affinities of heterobifunctional compounds to DDB1 were determined by SPR assay (FIG. 1A-1B). Purified DDB1ΔBPB proteins were immobilized on a CM5 sensor chip, and a dose range of compound solutions were injected in multi-cycle kinetic format. Data were fit to a steady state model to provide equivalent dissociation constants (Kd).
# Human DDB1ΔBPB (UniProt: Q16531. BPB domain, aa 396 to 705, is replaced with a GNGNSG linker) coding sequences were cloned into pFastBacHTB vector and were expressed in SF9 cells using Bac-to-Bac baculovirus expression system (Thermo Fisher Scientific). The expression constructs include an N-terminal His6-tag to facilitate the purification, and a TEV protease cleavage site in between. DDB1ΔBPB proteins were obtained from supernatant of cell lysates and purified through sequential application of Ni affinity column (Ni-NTA column, Bio-Rad) and size-exclusion column (Superdex 200 16/600GL column, GE Healthcare) chromatography. Protein tags were cleaved off by TEV protease, and the resulting untagged proteins were further purified by Ni affinity column. Purified proteins were verified by immunoblotting, analytic SEC, and LC-MS.
# SPR studies were performed on a Biacore X100 plus instrument (GE Healthcare). Immobilization of purified DDB1ΔBPB was carried out at 25° C. using a CM5 sensor chip. The surface was pre-equilibrated in HBS-EP running buffer (10 mM HEPES, pH7.4, 150 mM NaCl, 3 mM EDTA, 0.05% P20), before it was activated with EDC/NHS. DDB1ΔBPB proteins were immobilized by amine coupling to a density of 10,000-12,000 resonance units (RUs) on flow cell FC2, whereas flow cell FC1 was used as reference. Both protein immobilized and reference surfaces were deactivated with 1M ethanolamine. All interaction experiments were performed at 25° C. Test compounds were prepared and serially diluted in HBS-EP running buffer containing final 5% DMSO (6-point two-fold serial dilution, 100 μM-3.125 μM final concentration of compounds). Compound solutions were injected individually in multi-cycle kinetic format without regeneration (flow rate 30 μl/min, association time 120 s, dissociation time 120 s). Sensorgrams from reference surfaces and blank injections were subtracted from the raw data (double-referencing) and the data was solvent-corrected prior to analysis. All data were fit to steady state affinity model using Biacore Evaluation Software to provide equivalent dissociation constants (Kd).
# [3] = test system: cyclin D1; experiment: Cyclin D1 percentage degradation in Calu-1 cells (immunoblotting); type: cell-based; details: 16 hours
# In short: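 Cyclin D1 degradation was assessed by western blot. Clarified lysates, obtained by RIPA lysis with inhibitors and centrifugation at 13,000 rpm, were normalized by BCA protein assay and separated by SDS-PAGE. Bands were detected with Western ECL Substrate on a Bio-Rad ChemiDoc MP Imaging system and quantified in Image Lab software to derive percentage degradation.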
# [4] = target: T2, CDK4 (Homo sapiens, UniProt P11802); experiment: CDK4 percentage degradation in Calu-1 cells (immunoblotting); type: cell-based; details: Calu-1 cells, 16 hours; for inhibition at 0.2 µM: 200 nM, read-out: CDK4 Degradation (200 nM); for inhibition at 10 µM: read-out: CDK4 Degradation (10 μM)
# T2 construct: endogenous in cells; host or cells: Calu-1
# T2 sequence (P11802 2-303 limits assumed): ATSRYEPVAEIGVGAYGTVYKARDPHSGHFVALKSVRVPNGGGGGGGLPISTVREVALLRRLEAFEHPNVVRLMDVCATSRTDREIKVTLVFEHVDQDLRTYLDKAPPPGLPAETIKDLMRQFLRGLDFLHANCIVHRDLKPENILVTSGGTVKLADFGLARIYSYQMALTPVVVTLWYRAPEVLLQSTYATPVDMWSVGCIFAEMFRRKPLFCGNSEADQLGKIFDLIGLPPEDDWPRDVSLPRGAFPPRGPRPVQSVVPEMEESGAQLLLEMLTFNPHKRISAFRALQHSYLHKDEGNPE
# T2 sequence (P24385 whole entry partner): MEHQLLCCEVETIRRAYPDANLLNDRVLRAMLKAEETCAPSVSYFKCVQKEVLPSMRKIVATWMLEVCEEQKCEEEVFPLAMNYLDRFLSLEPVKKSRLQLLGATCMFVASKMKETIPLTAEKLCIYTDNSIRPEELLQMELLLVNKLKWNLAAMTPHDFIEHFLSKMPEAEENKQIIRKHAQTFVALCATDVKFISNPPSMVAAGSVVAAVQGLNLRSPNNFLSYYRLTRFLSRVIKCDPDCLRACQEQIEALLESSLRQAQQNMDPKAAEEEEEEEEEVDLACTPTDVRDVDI
# T2 sequence (Q16531 2-1140 limits assumed, further chain): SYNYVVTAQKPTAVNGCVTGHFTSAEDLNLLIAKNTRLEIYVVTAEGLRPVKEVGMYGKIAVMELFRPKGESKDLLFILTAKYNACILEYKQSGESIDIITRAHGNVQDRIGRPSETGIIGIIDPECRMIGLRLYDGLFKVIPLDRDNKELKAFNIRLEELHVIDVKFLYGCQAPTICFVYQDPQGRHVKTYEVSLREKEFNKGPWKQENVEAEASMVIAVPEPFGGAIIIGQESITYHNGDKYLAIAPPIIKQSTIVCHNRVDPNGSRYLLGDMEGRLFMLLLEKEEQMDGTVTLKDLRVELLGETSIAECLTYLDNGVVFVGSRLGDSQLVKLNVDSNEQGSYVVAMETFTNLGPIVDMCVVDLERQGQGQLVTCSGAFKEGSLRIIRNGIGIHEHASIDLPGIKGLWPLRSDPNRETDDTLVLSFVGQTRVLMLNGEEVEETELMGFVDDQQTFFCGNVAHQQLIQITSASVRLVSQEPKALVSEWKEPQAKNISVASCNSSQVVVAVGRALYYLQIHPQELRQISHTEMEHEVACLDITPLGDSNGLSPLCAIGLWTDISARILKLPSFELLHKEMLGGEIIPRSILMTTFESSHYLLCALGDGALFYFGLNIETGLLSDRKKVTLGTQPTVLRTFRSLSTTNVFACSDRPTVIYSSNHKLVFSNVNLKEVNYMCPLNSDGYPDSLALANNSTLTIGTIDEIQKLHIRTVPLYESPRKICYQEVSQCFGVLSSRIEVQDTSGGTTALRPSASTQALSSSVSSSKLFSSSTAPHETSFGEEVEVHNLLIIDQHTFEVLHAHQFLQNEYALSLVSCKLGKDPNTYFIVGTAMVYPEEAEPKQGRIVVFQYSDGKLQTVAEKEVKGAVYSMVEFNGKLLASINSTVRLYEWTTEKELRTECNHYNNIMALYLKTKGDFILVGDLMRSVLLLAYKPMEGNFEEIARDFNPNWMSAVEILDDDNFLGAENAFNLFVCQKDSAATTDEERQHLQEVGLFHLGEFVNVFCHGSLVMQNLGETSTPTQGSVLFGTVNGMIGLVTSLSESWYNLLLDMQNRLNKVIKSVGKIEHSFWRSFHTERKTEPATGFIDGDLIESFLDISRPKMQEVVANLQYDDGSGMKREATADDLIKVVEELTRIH
# In short: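 CDK4 degradation was measured by immunoblotting. Cells were washed in cold PBS and lysed in RIPA buffer with inhibitors for 30 min at 4° C., then spun at 13,000 rpm to clear. After BCA protein determination, lysates were heated at 99° C. for 5 min in Laemmli buffer, resolved on SDS-PAGE, imaged on a ChemiDoc MP with ECL substrate, and band intensities quantified.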
Structure (SMILES),Kd [2],inhibition at 0.2 µM [4],P300/CBP Degradation (100 nM) [1],CyclinD1 Degradation (200 nM) [3],other results
"CC(=O)N1CCc2c(c(N3CCCc4cc(-c5cnn(C)c5)c(C(F)F)cc43)nn2C2CCN(C(=O)CCCCCCCCC(=O)Nc3ccccc3C(=O)Nc3nc(C)c([N+](=O)[O-])s3)CC2)C1 [CPD-205, 2-(10-(4-(5-Acetyl-3-(7-(difluoromethyl)-6-(1-methyl-1H-pyrazol-4-yl)-3,4-dihydroquinolin-1(2H)-yl)-4,5,6,7-tetrahydro-1H-pyrazolo[4,3-c]pyridin-1-yl)piperidin-1-yl)-10-oxodecanamido)-N-(4-methyl-5-nitrothiazol-2-yl)benzamide]",,,D (degradation activity < 30%),,
"CC(=O)N1CCc2c(c(N3CCCc4cc(-c5cnn(C)c5)c(C(F)F)cc43)nn2C2CCN(CC(=O)NCCNc3ccc(C(=O)Nc4ncc(C)s4)c(C)c3)CC2)C1 [CPD-189, 4-((2-(2-(4-(5-Acetyl-3-(7-(difluoromethyl)-6-(1-methyl-1H-pyrazol-4-yl)-3,4-dihydroquinolin-1(2H)-yl)-4,5,6,7-tetrahydro-1H-pyrazolo[4,3-c]pyridin-1-yl)piperidin-1-yl)acetamido)ethyl)amino)-2-methyl-N-(5-methylthiazol-2-yl)benzamide]",,,D (degradation activity < 30%),,
"CC(=O)N1CCc2c(c(N3CCCc4cc(-c5cnn(C)c5)c(C(F)F)cc43)nn2C2CCN(CC(=O)NCCCCCCCCCC(=O)Nc3ccccc3C(=O)Nc3nc(C)c([N+](=O)[O-])s3)CC2)C1 [CPD-217, 2-(10-(2-(4-(5-Acetyl-3-(7-(difluoromethyl)-6-(1-methyl-1H-pyrazol-4-yl)-3,4-dihydroquinolin-1(2H)-yl)-4,5,6,7-tetrahydro-1H-pyrazolo[4,3-c]pyridin-1-yl)piperidin-1-yl)acetamido)decanamido)-N-(4-methyl-5-nitrothiazol-2-yl)benzamide]",,,D (degradation activity < 30%),,
"CC(=O)N1CCc2c(c(N3CCCc4cc(-c5cnn(C)c5)c(C(F)F)cc43)nn2C2CCN(CC(=O)NCCCCCNc3ccc(C(=O)Nc4ncc(C)s4)c(C)c3)CC2)C1 [CPD-192, 4-((5-(2-(4-(5-Acetyl-3-(7-(difluoromethyl)-6-(1-methyl-1H-pyrazol-4-yl)-3,4-dihydroquinolin-1(2H)-yl)-4,5,6,7-tetrahydro-1H-pyrazolo[4,3-c]pyridin-1-yl)piperidin-1-yl)acetamido)pentyl)amino)-2-methyl-N-(5-methylthiazol-2-yl)benzamide]",,,D (degradation activity < 30%),,
"CC(=O)N1CCc2c(c(N3CCCc4cc(-c5cnn(C)c5)c(C(F)F)cc43)nn2C2CCN(CC(=O)NCC(=O)Nc3ccccc3C(=O)Nc3nc(C)c([N+](=O)[O-])s3)CC2)C1 [CPD-209, 2-(2-(2-(4-(5-Acetyl-3-(7-(difluoromethyl)-6-(1-methyl-1H-pyrazol-4-yl)-3,4-dihydroquinolin-1(2H)-yl)-4,5,6,7-tetrahydro-1H-pyrazolo[4,3-c]pyridin-1-yl)piperidin-1-yl)acetamido)acetamido)-N-(4-methyl-5-nitrothiazol-2-yl)benzamide]",,,D (degradation activity < 30%),,
"CC(=O)c1c(C)c2cnc(Nc3ccc(N4CCN(CC(=O)NCCOCCOCCC(=O)Nc5ccccc5C(=O)Nc5nc(C)c(C)s5)CC4)cn3)nc2n(C2CCCC2)c1=O [CPD-115, 2-(3-(2-(2-(2-(4-(6-((6-Acetyl-8-cyclopentyl-5-methyl-7-oxo-7,8-dihydropyrido[2,3-d]pyrimidin-2-yl)amino)pyridin-3-yl)piperazin-1-yl)acetamido)ethoxy)ethoxy)propanamido)-N-(4,5-dimethylthiazol-2-yl)benzamide]",< 20 µM,> 80%,,A (protein percentage degradation >=80%),
"Cc1cnc(NC(=O)c2ccc(NCCOCCOCCOCCOCCOCCNC(=O)CN3CCN(Cc4ccc(Nc5ncc(F)c(-c6cc(F)c7nc(C)n(C(C)C)c7c6)n5)nc4)CC3)cc2C)s1 [CPD-020, 4-((1-(4-((6-((5-Fluoro-4-(4-fluoro-1-isopropyl-2-methyl-1H-benzo[d]imidazol-6-yl)pyrimidin-2-yl)amino)pyridin-3-yl)methyl)piperazin-1-yl)-2-oxo-6,9,12,15,18-pentaoxa-3-azaicosan-20-yl)amino)-2-methyl-N-(5-methylthiazol-2-yl)benzamide]",< 20 µM,,,,CyclinD1 Degradation (10 μM) [3]: D (protein percentage degradation < 30%); inhibition at 10 µM [4]: < 30%

# More lines, main results first:
Kd [2],inhibition at 0.2 µM [4],Structure (SMILES),P300/CBP Degradation (100 nM) [1],CyclinD1 Degradation (200 nM) [3],other results
< 20 µM,> 80%,"CC(=O)c1c(C)c2cnc(Nc3ccc(N4CCN(CC(=O)NCCOCCOCCOCCOCCOCCNc5ccc(C(=O)Nc6nc(C(C)C)c(C)s6)c(C)c5)CC4)cn3)nc2n(C2CCCC2)c1=O [CPD-043, 4-((1-(4-(6-((6-Acetyl-8-cyclopentyl-5-methyl-7-oxo-7,8-dihydropyrido[2,3-d]pyrimidin-2-yl)amino)pyridin-3-yl)piperazin-1-yl)-2-oxo-6,9,12,15,18-pentaoxa-3-azaicosan-20-yl)amino)-N-(4-isopropyl-5-methylthiazol-2-yl)-2-methylbenzamide]",,A (protein percentage degradation >=80%),
< 20 µM,> 80%,"CC(=O)c1c(C)c2cnc(Nc3ccc(N4CCN(CC(=O)NCCOCCOCCOCCOCCOCCNc5ccc(C(=O)Nc6nc(C7CC7)c(C)s6)c(C)c5)CC4)cn3)nc2n(C2CCCC2)c1=O [CPD-046, 4-((1-(4-(6-((6-Acetyl-8-cyclopentyl-5-methyl-7-oxo-7,8-dihydropyrido[2,3-d]pyrimidin-2-yl)amino)pyridin-3-yl)piperazin-1-yl)-2-oxo-6,9,12,15,18-pentaoxa-3-azaicosan-20-yl)amino)-N-(4-cyclopropyl-5-methylthiazol-2-yl)-2-methylbenzamide]",,A (protein percentage degradation >=80%),
50 to 100 µM,,"Cc1cnc(NC(=O)c2ccc(NCCOCCOCCOCCOCCOCCNC(=O)CN3CCN(c4ccc(Nc5ncc6cc(C(=O)N(C)C)n(C7CCCC7)c6n5)nc4)CC3)cc2C)s1 [CPD-023, 7-Cyclopentyl-N,N-dimethyl-2-((5-(4-(20-((3-methyl-4-((5-methylthiazol-2-yl)carbamoyl)phenyl)amino)-2-oxo-6,9,12,15,18-pentaoxa-3-azaicosyl)piperazin-1-yl)pyridin-2-yl)amino)-7H-pyrrolo[2,3-d]pyrimidine-6-carboxamide]",,,CyclinD1 Degradation (10 μM) [3]: A (protein percentage degradation >= 80%); inhibition at 10 µM [4]: > 80%
< 20 µM,50 to 80%,"CC(=O)c1c(C)c2cnc(Nc3ccc(N4CCN(CC(=O)NCCOCCOCCOCCOCCOCCNc5ccc(C(=O)Nc6nc(Br)c(C)s6)c(C)c5)CC4)cn3)nc2n(C2CCCC2)c1=O [CPD-044, 4-((1-(4-(6-((6-Acetyl-8-cyclopentyl-5-methyl-7-oxo-7,8-dihydropyrido[2,3-d]pyrimidin-2-yl)amino)pyridin-3-yl)piperazin-1-yl)-2-oxo-6,9,12,15,18-pentaoxa-3-azaicosan-20-yl)amino)-N-(4-bromo-5-methylthiazol-2-yl)-2-methylbenzamide]",,A (protein percentage degradation >=80%),
